According to ChEMBL document CHEMBL6096721, “Discovery of Selenium-Containing Derivatives as Potent and Orally Bioavailable GLP-1R Agonists” (J Med Chem, 2025):
Blank lines part the entries; values can stand above or below the compound they belong to.

Experiments:
[1] = molecular target: T1, Glucagon-like peptide 1 receptor (Homo sapiens, UniProt P43220); assay: Binding affinity to human GLP-1R assessed as association rate constant by SPR analysis; conditions: filed as agonist
[2] = molecular target: T1, Glucagon-like peptide 1 receptor; assay: Partial agonist activity at LgBit-tagged GLP-1R (unknown origin) transfected in HEK293 cells co-transfected with Smbit-tagged beta-arrestin-1 assessed as beta-arrestin recruitment incubated for 5 mins by envision microplate reader analysis; assay type: functional, cell-based
[3] = molecular target: T1, Glucagon-like peptide 1 receptor; assay: Partial agonist activity at LgBit-tagged GLP-1R (unknown origin) transfected in HEK293 cells co-transfected with Smbit-tagged beta-arrestin-1 assessed as beta-arrestin recruitment by measuring maximal efficacy incubated for 5 mins by envision microplate reader analysis relative to control; assay type: functional, cell-based
[4] = Cmax in male ICR mouse at 2 mg/kg, iv measured after 24 hrs by LC-MS/MS analysis; assay type: ADME, organism-based; conditions: in vivo
[5] = AUC (0 to t) in male ICR mouse at 2 mg/kg, iv measured after 24 hrs by LC-MS/MS analysis; assay type: ADME, organism-based; conditions: in vivo
[6] = Half-life in male ICR mouse at 2 mg/kg, iv measured after 24 hrs by LC-MS/MS analysis; assay type: ADME, organism-based; conditions: in vivo
[7] = MRT (0 to t) in male ICR mouse at 2 mg/kg, iv measured after 24 hrs by LC-MS/MS analysis; assay type: ADME, organism-based; conditions: in vivo
[8] = Apparent volume of distribution in male ICR mouse at 2 mg/kg, iv measured after 24 hrs by LC-MS/MS analysis; assay type: ADME, organism-based; conditions: in vivo, read-out: Vz
[9] = Clearance in male ICR mouse at 2 mg/kg, iv measured after 24 hrs by LC-MS/MS analysis; assay type: ADME, organism-based; conditions: in vivo
[10] = Cmax in male ICR mouse at 10 mg/kg, po measured after 24 hrs by LC-MS/MS analysis; assay type: ADME, organism-based; conditions: in vivo
[11] = Tmax in male ICR mouse at 10 mg/kg, po measured after 24 hrs by LC-MS/MS analysis; assay type: ADME, organism-based; conditions: in vivo
[12] = AUC (0 to t) in male ICR mouse at 10 mg/kg, po measured after 24 hrs by LC-MS/MS analysis; assay type: ADME, organism-based; conditions: in vivo
[13] = Half-life in male ICR mouse at 10 mg/kg, po measured after 24 hrs by LC-MS/MS analysis; assay type: ADME, organism-based; conditions: in vivo
[14] = MRT (0 to t) in male ICR mouse at 10 mg/kg, po measured after 24 hrs by LC-MS/MS analysis; assay type: ADME, organism-based; conditions: in vivo
[15] = Oral bioavailability in male ICR mouse at 10 mg/kg measured after 24 hrs by LC-MS/MS analysis; assay type: ADME, organism-based; conditions: in vivo
[16] = molecular target: T1, Glucagon-like peptide 1 receptor; assay: Agonist activity at human GLP-1R expressed in HEK293 cells assessed as cAMP accumulation incubated for 30 mins by LANCE ultra cAMP assay; assay type: functional, cell-based
[17] = Half-life in male rat at 1 mg/kg, iv; assay type: ADME, organism-based; conditions: in vivo
[18] = Oral bioavailability in male rat at 5 mg/kg; assay type: ADME, organism-based; conditions: in vivo

T1 sequence (P43220 whole entry): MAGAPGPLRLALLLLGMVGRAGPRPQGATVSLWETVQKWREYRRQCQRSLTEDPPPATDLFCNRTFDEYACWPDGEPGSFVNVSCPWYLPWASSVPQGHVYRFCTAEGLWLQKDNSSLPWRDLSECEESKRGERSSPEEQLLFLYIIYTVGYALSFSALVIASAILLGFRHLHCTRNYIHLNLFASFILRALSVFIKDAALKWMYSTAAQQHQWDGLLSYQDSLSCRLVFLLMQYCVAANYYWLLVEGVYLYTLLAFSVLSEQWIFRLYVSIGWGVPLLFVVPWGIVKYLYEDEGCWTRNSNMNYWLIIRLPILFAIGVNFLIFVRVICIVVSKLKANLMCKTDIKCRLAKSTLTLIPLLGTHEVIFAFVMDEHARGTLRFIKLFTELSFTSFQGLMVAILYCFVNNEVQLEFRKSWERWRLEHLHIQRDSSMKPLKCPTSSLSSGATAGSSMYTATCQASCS

- Ka [1]: 7.94 10^5/M.s
Compound: SEMAGLUTIDE

- EC50 [2]: > 200 µM
- Emax [3]: 28%
- Cmax [4]: 16500 ng/mL
- AUC(0-t) at 24 h [5]: 3720 ng·h/mL
- half-life [6]: 5.71 h
- MRT last at 24 h [7]: 0.39 h
- Vd [8]: 4.27 L/kg
- clearance [9]: 9.05 mL/min/kg
- Cmax [10]: 283 ng/mL
- Tmax [11]: 0.42 h
- AUC(0-t) at 24 h [12]: 582 ng·h/mL
- half-life [13]: 6.06 h
- MRT last at 24 h [14]: 3.21 h
- bioavailability [15]: 3.2%
Compound: COc1cc(C(F)(F)F)ccc1C[Se]c1cccc(N2C=NN(Cc3nc4c(F)cc(C(=O)O)cc4n3C[C@@H]3CCO3)CC2)n1

- EC50 [16]: > 200 µM
Compound: CC(C)[C@@H](NCc1nc2ccc(C(=O)O)cc2n1C[C@@H]1CCO1)C(=O)Nc1cccc([Se]Cc2ccc(C#N)cc2F)n1

- half-life [17]: 0.47 h
- bioavailability [18]: 23.4%
Compound: N#Cc1ccc(C[Se]c2cccc(C3CCN(Cc4nc5ccc(C(=O)O)cc5n4C[C@@H]4CCO4)CC3)n2)c(F)c1
